# From patent US20100297676A1, “METHODS FOR DIAGNOSIS, PROGNOSIS AND METHODS OF TREATMENT” (Nodality, Inc., priority 2009, published 2010)
# How the values were obtained:
# CLL cells = details: in vitro treatment; Buchner 2009, Gobessi 2009; cited from earlier work
# healthy B cells = details: B cells from healthy donors; anti-μ 10 μg/ml plus H2O2 […], 10 min
# Procedure: Cryopreserved PBMCs, 23 from CLL patients and 7 from healthy donors, were rapidly thawed in a 37° C. water bath. 1 mL of pre-warmed thawing media (PBS 1% FBS, 2 mM EDTA) was added dropwise to each of the cryovials. Thawed cells were transferred to a tube containing 8 mL thawing media. Tubes were inverted and centrifuged at 200×g for 8 minutes at room temperature. Supernatant was decanted, cell pellets were resuspended in 1 mL RPMI 1640 1% FCS and filtered over 70 um nylon mesh (BD Falcon) to remove cell clumps and debris. 11 mL of additional RPMI 1640 1% FCS was added to the samples to wash. […]
# Supernatant was aspirated and each sample was resuspended in 4 mL of PBS. […] The supernatant was decanted and all samples were resuspended at a density of 2.4×10^6 cells/mL, using a volume specific to the number of cells determined from the cell counting procedure. […]
# “Daughter” plates designated for treatment with modulators for or apoptosis inducing agents were generated from the “mother” plate with the use of a Liquidator 96-well pipettor (Rainin) Plates designated for treatment with modulators for phospho-readouts received 250 uL (6.0×10^5 cells) of cell suspension per well, and plates designated for treatment with apoptosis inducing agents received 333 uL (8.0×10^5 cells) of cell suspension per well. […]
# Antibody cocktails for signaling and apoptosis readouts were prepared in FACS Buffer. […]
Structure (SMILES),apoptotic response of CLL cells (CLL cells),effect of H2O2 on anti-μ-mediated BCR signaling (healthy B cells)
COc1cc(Nc2ncc(F)c(Nc3ccc4c(n3)NC(=O)C(C)(C)O4)n2)cc(OC)c1OC [R406],mediated an apoptotic response,–
"OO [H2O2, hydrogen peroxide]",–,further potentiated
